Results as given in the NIST ThermoML archive (doi:10.1021/je020135f).
Several values for one entry are separate records, joined by “and”; a condition that tells them apart may be missing. Equal values may be shown once. ± gives the expanded uncertainty stated by the source.

How the values were obtained:
[1] = 298.15 K; 101.33 kPa; Liquid; Vibrating tube method
[2] = excess molar enthalpy (molar enthalpy of mixing); xn = mol fraction of the nth substance listed

CN(C)C=O [dimethylformamide]
Details	mass density
[1]	943.81 ± 0.13 kg/m3 and 943.88 ± 0.1 kg/m3

CO [methanol]
Details	mass density [kg/m3]
[1]	786.55 ± 0.43

CC1CCCCC1 [methylcyclohexane]
Details	mass density
[1]	764.96 ± 0.42 kg/m3 and 764.97 ± 0.18 kg/m3

CC1CCCCC1 [methylcyclohexane] + CN(C)C=O
excess molar enthalpy [kcal/mol], [2], 101.33 kPa, Liquid
Details	298.15 K	313.15 K
x1 = 0.031	0.0593 ± 0.00182	0.058 ± 0.00184
x1 = 0.0633	0.104 ± 0.00287	–
x1 = 0.0634	–	0.114 ± 0.00311
x1 = 0.0969	0.162 ± 0.0043	–
x1 = 0.097	–	0.166 ± 0.0043
x1 = 0.132	0.209 ± 0.00526	–
x1 = 0.1321	–	0.215 ± 0.0055
x1 = 0.1687	–	0.26 ± 0.00669
x1 = 0.2069	–	0.298 ± 0.00741
x1 = 0.9204	–	0.182 ± 0.00478
x1 = 0.924	0.17 ± 0.0043	–
x1 = 0.9274	0.163 ± 0.0043	–
x1 = 0.9305	0.159 ± 0.00406	–
x1 = 0.9383	0.147 ± 0.00382	0.154 ± 0.00406
x1 = 0.9552	–	0.118 ± 0.00335

[2]
Details	excess molar enthalpy
298.15 K, Liquid mixture 1, x1 = 0.1685	0.228 ± 0.00574 kcal/mol
298.15 K, Liquid mixture 1, x1 = 0.2068	0.234 ± 0.00598 kcal/mol
298.15 K, Liquid mixture 1, x1 = 0.2467	0.233 ± 0.00598 kcal/mol
298.15 K, Liquid mixture 1, x1 = 0.2893	0.233 ± 0.00598 kcal/mol
298.15 K, Liquid mixture 1, x1 = 0.3322	0.231 ± 0.00598 kcal/mol
298.15 K, Liquid mixture 1, x1 = 0.3781	0.227 ± 0.00574 kcal/mol
298.15 K, Liquid mixture 1, x1 = 0.3782	0.226 ± 0.00574 kcal/mol
298.15 K, Liquid mixture 1, x1 = 0.4264	0.224 ± 0.00574 kcal/mol
298.15 K, Liquid mixture 1, x1 = 0.4771	0.221 ± 0.00574 kcal/mol
298.15 K, Liquid mixture 1, x1 = 0.5304	0.218 ± 0.0055 kcal/mol
298.15 K, Liquid mixture 1, x1 = 0.5867	0.215 ± 0.0055 kcal/mol
298.15 K, Liquid mixture 1, x1 = 0.646	0.212 ± 0.00526 kcal/mol
298.15 K, Liquid mixture 1, x1 = 0.7087	0.208 ± 0.00526 kcal/mol
298.15 K, Liquid mixture 1, x1 = 0.7751	0.204 ± 0.00526 kcal/mol
298.15 K, Liquid mixture 1, x1 = 0.8455	0.199 ± 0.00502 kcal/mol
298.15 K, Liquid mixture 1, x1 = 0.9204	0.179 ± 0.00454 kcal/mol
313.15 K, Liquid mixture 1, x1 = 0.2469	0.315 ± 0.00789 kcal/mol
313.15 K, Liquid mixture 1, x1 = 0.2887	0.319 kcal/mol and 0.317 kcal/mol
313.15 K, Liquid mixture 1, x1 = 0.3325	0.317 ± 0.00789 kcal/mol
313.15 K, Liquid mixture 1, x1 = 0.3784	0.316 ± 0.00789 kcal/mol
313.15 K, Liquid mixture 1, x1 = 0.4267	0.314 ± 0.00789 kcal/mol
313.15 K, Liquid mixture 1, x1 = 0.4773	0.312 ± 0.00789 kcal/mol
313.15 K, Liquid mixture 1, x1 = 0.5307	0.308 ± 0.00765 kcal/mol
313.15 K, Liquid mixture 1, x1 = 0.5869	0.306 ± 0.00765 kcal/mol
313.15 K, Liquid mixture 1, x1 = 0.6462	0.304 ± 0.00765 kcal/mol
313.15 K, Liquid mixture 1, x1 = 0.7089	0.301 ± 0.00765 kcal/mol
313.15 K, Liquid mixture 1, x1 = 0.7753	0.297 ± 0.00741 kcal/mol
313.15 K, Liquid mixture 1, x1 = 0.8457	0.276 ± 0.00693 kcal/mol

CC1CCCCC1 [methylcyclohexane] + CO
excess molar enthalpy [kcal/mol], [2], 101.33 kPa, Liquid
Details	298.15 K	313.15 K
x1 = 0.0166	0.0185 ± 0.00086	0.02 ± 0.000908
x1 = 0.0343	–	0.0381 ± 0.00127
x1 = 0.0345	0.0357 ± 0.0012	–
x1 = 0.0534	–	0.0559 ± 0.00165
x1 = 0.0537	0.052 ± 0.00155	–
x1 = 0.0741	–	0.0718 ± 0.00201
x1 = 0.0743	0.066 ± 0.00186	–
x1 = 0.0964	–	0.0868 ± 0.00237
x1 = 0.0967	0.0793 ± 0.00217	–
x1 = 0.1206	–	0.101 ± 0.00263
x1 = 0.121	0.0911 ± 0.00239	–
x1 = 0.147	–	0.114 ± 0.00311
x1 = 0.1758	–	0.125 ± 0.00335
x1 = 0.2075	–	0.134 ± 0.00359
x1 = 0.2411	–	0.139 ± 0.00359
x1 = 0.2424	–	0.141 ± 0.00359
x1 = 0.7423	–	0.16 ± 0.00406
x1 = 0.8057	–	0.152 ± 0.00406
x1 = 0.8588	–	0.138 ± 0.00359
x1 = 0.859	0.101 ± 0.00263	–
x1 = 0.9055	–	0.123 ± 0.00311
x1 = 0.9056	0.0887 ± 0.00239	–
x1 = 0.941	–	0.108 ± 0.00287

[2]
Details	excess molar enthalpy [kcal/mol]
298.15 K, Liquid mixture 1, x1 = 0.1475	0.0996 ± 0.00263
298.15 K, Liquid mixture 1, x1 = 0.1764	0.103 ± 0.00263
298.15 K, Liquid mixture 1, x1 = 0.2082	0.104 ± 0.00263
298.15 K, Liquid mixture 1, x1 = 0.2411	0.105 ± 0.00287
298.15 K, Liquid mixture 1, x1 = 0.2432	0.105 ± 0.00287
298.15 K, Liquid mixture 1, x1 = 0.2819	0.105 ± 0.00287
298.15 K, Liquid mixture 1, x1 = 0.3251	0.106 ± 0.00287
298.15 K, Liquid mixture 1, x1 = 0.3736	0.106 ± 0.00287
298.15 K, Liquid mixture 1, x1 = 0.4283	0.107 ± 0.00287
298.15 K, Liquid mixture 1, x1 = 0.4907	0.108 ± 0.00287
298.15 K, Liquid mixture 1, x1 = 0.5623	0.108 ± 0.00287
298.15 K, Liquid mixture 1, x1 = 0.6453	0.109 ± 0.00287
298.15 K, Liquid mixture 1, x1 = 0.7429	0.111 ± 0.00287
298.15 K, Liquid mixture 1, x1 = 0.8061	0.109 ± 0.00287
313.15 K, Liquid mixture 1, x1 = 0.2812	0.145 ± 0.00382
313.15 K, Liquid mixture 1, x1 = 0.3244	0.147 ± 0.00382
313.15 K, Liquid mixture 1, x1 = 0.3728	0.15 ± 0.00382
313.15 K, Liquid mixture 1, x1 = 0.4275	0.154 ± 0.00406
313.15 K, Liquid mixture 1, x1 = 0.4898	0.157 ± 0.00406
313.15 K, Liquid mixture 1, x1 = 0.5615	0.16 ± 0.00406
313.15 K, Liquid mixture 1, x1 = 0.6446	0.164 ± 0.0043
